Test results from ChEMBL document CHEMBL1123900, “Thienothiopyran-2-sulfonamides: a novel class of water-soluble carbonic anhydrase inhibitors” (J Med Chem, 1987).
≈ marks a conversion by molar mass, not a printed value.

Assays:
[1] = Total solubility measured on pH 7.4 buffer at 25 degree C; type: ADME; conditions: read-out: S
[2] = pKa value in 30% EtOH-H20; type: physicochemical; conditions: 30% EtOH-H2O
[3] = target: T1, Carbonic anhydrase 2 (Homo sapiens, UniProt P00918)
Description: In vitro inhibition against purified human erythrocyte carbonic anhydrase II was determined (acetozolamide used as control.)

[4] = target: T1, Carbonic anhydrase 2; remark: listed apart in the source
Description: In vitro binding to human erythrocyte Carbonic anhydrase II was determined by fluorescence competition assay employing the fluorescent CA inhibitor dansylamide

[5] = Solubility (pH 7.4 buffer ar 25 degree C); type: physicochemical; conditions: read-out: S
[6] = target: T1, Carbonic anhydrase 2; remark: listed apart in the source
Description: In vitro binding to human erythrocyte carbonic anhydrase was determined by fluorescence competition assay employing the fluorescent CA inhibitor dansylamide

[7] = Partition coefficient determined in 1-octanol buffer pH 7.4; type: physicochemical; conditions: octanol/water

In the case of `NS(=O)(=O)c1cc2c(s1)C(=O)CCS2`, the solubility [1] is reported as 80 µg/mL (≈ 0.321 mM), the pKa [2] is reported as 8.45 and the IC50 [3] is reported as 3.5 nM. It also gave a Ki [4] of 1.15 nM.

Compound `NS(=O)(=O)c1cc2c(s1)C(O)CC[S+]2[O-]` (configuration not stated) has a pKa [2] of 8.82, an IC50 [3] of 250 nM and a solubility [5] of 7200 µg/mL (≈ 26.9 mM). The Ki [6] was 309 nM.

`NS(=O)(=O)c1cc2c(s1)CC(O)CS2(=O)=O` (configuration not stated) showed a Partition coefficient [7] of 0.2, a pKa [2] of 8.52 and an IC50 [3] of 40 nM. It also gave a solubility [5] of 7300 µg/mL (≈ 25.8 mM) and a Ki [6] of 18.2 nM.

In the case of `NS(=O)(=O)c1cc2c(s1)SCCC2O` (configuration not stated), the pKa [2] is reported as 9.4, the IC50 [3] is reported as 30 nM and the solubility [5] is reported as 640 µg/mL (≈ 2.55 mM). For the same compound, the Ki [4] was 28 nM.

Compound `NS(=O)(=O)c1cc2c(s1)C(=O)CCS2(=O)=O` has a Partition coefficient [7] of 0.63, a pKa [2] of 7.32 and an IC50 [3] of 22 nM. For the same compound, the solubility [5] was 60 µg/mL (≈ 0.213 mM) and the Ki [4] was 14.1 nM.

Work on `NS(=O)(=O)c1cc2c(s1)SCCC2=O` yielded a pKa [2] of 8.6, an IC50 [3] of 8.5 nM and a solubility [5] of 70 µg/mL (≈ 0.281 mM). It also gave a Ki [4] of 3.63 nM.

In the case of `NS(=O)(=O)c1cc2c(s1)[S+]([O-])CCC2O` (configuration not stated), the pKa [2] is reported as 8.68, the IC50 [3] is reported as 100 nM and the solubility [5] is reported as 12000 µg/mL (≈ 44.9 mM). The Ki [6] was 104 nM.

Compound `NS(=O)(=O)c1cc2c(s1)S(=O)(=O)CC[C@H]2O` has a Partition coefficient [7] of 0.42, a pKa [2] of 8.35 and a solubility [5] of 6300 µg/mL (≈ 22.2 mM).

`NS(=O)(=O)c1cc2c(s1)S(=O)(=O)CC[C@@H]2O` gave a Partition coefficient [7] of 0.42, a pKa [2] of 8.3 and a solubility [5] of 6400 µg/mL (≈ 22.6 mM).

Work on `CC(C)(C)C(=O)Oc1ccc2nc(S(N)(=O)=O)sc2c1` yielded a solubility [5] of 58 µg/mL (≈ 0.184 mM).

For `NS(=O)(=O)c1cc2c(s1)S(=O)(=O)CCC2O` (configuration not stated), the Partition coefficient [7] was 0.45, the pKa [2] was 8.35 and the solubility [5] was 12500 µg/mL (≈ 44.1 mM).

Work on `NS(=O)(=O)c1cc2c(s1)S(=O)(=O)CCC2` yielded a pKa [2] of 8.35, an IC50 [3] of 4.5 nM and a solubility [5] of 560 µg/mL (≈ 2.09 mM). For the same compound, the Ki [6] was 3.3 nM.

`NS(=O)(=O)c1cc2c(s1)S(=O)(=O)CCC2=O` gave a Partition coefficient [7] of 0.92, a pKa [2] of 7.92 and an IC50 [3] of 5 nM. For the same compound, the solubility [5] was 270 µg/mL (≈ 0.96 mM).

`NS(=O)(=O)c1cc2c(s1)C(O)CCS2(=O)=O` (configuration not stated) showed a pKa [2] of 8.34, an IC50 [3] of 40 nM and a solubility [5] of 15000 µg/mL (≈ 52.9 mM). It also gave a Ki [4] of 30.5 nM.

`NS(=O)(=O)c1cc2c(s1)S(=O)(=O)CC(O)C2` (configuration not stated) gave a pKa [2] of 8.6, an IC50 [3] of 10 nM and a solubility [5] of 8200 µg/mL (≈ 28.9 mM). For the same compound, the Ki [6] was 7.11 nM.

`NS(=O)(=O)c1cc2c(s1)C(O)CCS2` (configuration not stated) showed a Partition coefficient [7] of 3, a pKa [2] of 9 and an IC50 [3] of 23 nM. For the same compound, the solubility [5] was 1400 µg/mL (≈ 5.57 mM) and the Ki [4] was 14.2 nM.

Work on `CCOc1ccc2nc(S(N)(=O)=O)sc2c1` [ETHOXZOLAMIDE] yielded a solubility [5] of 24 µg/mL (≈ 0.0929 mM).
